Assay results from patent publication US12729377B2, “RNAi agents and compositions for inhibiting expression of angiopoietin-like 3 (ANGPTL3), and methods of use” (Arrowhead Pharmaceuticals, Inc., priority 2017, dated 2026).
In the oligonucleotide strings, read from the 5' end, every base follows the letter of its sugar. An asterisk marks phosphorothioate; unmarked linkages are phosphodiester. Other units and linkages are bracketed, terminal groups are in braces. A string of capitals states the bases alone. {NAG37} = tridentate N-acetyl-galactosamine targeting ligand, structure (NAG37)s; [invAb] = inverted abasic unit; m = 2'-O-methyl; f = 2'-fluoro

Key:
ANGPTL3 protein [1] = assay: Example 4: serum ANGPTL3 protein by ELISA in mice; assay type: in vivo, C57bl/6 mice; details: 1.0 mg/kg single subcutaneous dose on day 1, serum, female C57bl/6 mice
Protocol: (§1) To assess the in vivo activity of ANGPTL3 RNAi agents that are designed to target additional positions on the ANGPTL3 gene, six- to eight-week-old female C57bl/6 mice were used. Pre-dose serum samples were taken at day −1 after a four hour fast. At day 1, each mouse was given a single subcutaneous administration of 200 μl containing either 1 mg/kg (mpk) or 0.5 mg/kg (mpk) of an ANGPTL3 RNAi agent in D5W (dextrose in 5% water), or control (D5W) with no RNAi agent, according to the dosing groups recited in Table 17.
(§2) Each of the RNAi agents included a modified sequence and an N-acetyl-galactosamine-containing targeting ligand conjugated to the 5′ terminal end of the sense strand. (See Tables 3, 4, and 5 for modified sequences and targeting ligand structures). The injections were performed between the skin and muscle (i.e. subcutaneous injections) into the loose skin over the neck and shoulder area. Three (3) mice in each group were tested (n=3). Serum was collected on days 8, 15, 22, 29, and day 43 (Groups 1-3, 9, and 11-13 only). Mice were fasted for four hours prior to each collection. ANGPTL3 protein levels in serum were measured by ELISA assay (R&D Systems), according to the manufacturer's recommendations. Triglycerides, high-density lipoprotein (HDL), and total cholesterol in serum were measured on a Cobas® Integra 400 (Roche Diagnostics), according to the manufacturer's recommendations.
(§3) The ANGPTL3 protein levels, triglyceride levels, HDL levels, and total cholesterol levels for each animal were normalized. For normalization, the level of ANGPTL3 protein, triglyceride, HDL, and total cholesterol, respectively, for each animal at a time point, was divided by the pre-treatment level of expression in that animal (in this case at day −1) to determine the ratio of expression “normalized to pre-treatment.” Expression at a specific time point was then normalized to the D5W control group by dividing the “normalized to pre-treatment” ratio for an individual animal by the mean “normalized to pretreatment” ratio of all mice in the D5W control group.

ANGPTL3 gene [2] = assay: Example 4: serum HDL in mice; assay type: in vivo, C57bl/6 mice
Protocol: as §1, §2, §3

ANGPTL3 protein [3] = assay: Example 7: serum ANGPTL3 protein by ELISA in mice; assay type: in vivo, C57bl/6 mice; set-up: key: ratio: (level/pre-treatment day -1 level) ÷ mean of D5W control group
Method in brief: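 Female C57bl/6 mice (6–8 weeks, n=3) received a single subcutaneous dose of 0.5 mg/kg GalNAc-conjugated RNAi agent or D5W vehicle. Serum was taken after a 4 h fast at day −1 and days 8, 15, 22 and 29. ANGPTL3 was measured by ELISA and lipids by clinical analyzer, each normalised to the animal's pre-dose level and then to the D5W group mean.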

ANGPTL3 gene [4] = assay: Example 4: serum LDL in mice; assay type: in vivo, C57bl/6 mice; details: 1.0 mg/kg single SC injection on day 1, serum, n=3
Protocol: as §1, §2, §3

ANGPTL3 gene [5] = assay: Example 3: serum total cholesterol in mice; assay type: in vivo
Protocol: as §1, with “target” for “target additional”, “positions 921 and 922” for “positions”, “(mpk)” for “(mpk) or 0.5 mg/kg (mpk)”, “12.” for “17.”
as §2, with “Serum was collected on days 8, 15, 22, 29, and day 43 (Groups 1-3, 9, and 11-13 only).” left out
as §3

## AD05418: RNAi agent duplex: antisense AM07159-AS, sense AM07158-SS (antisense mU*fU*mU*fGmAfAmUfUmAfAmUfGmUfCmCfAmUfGmGfG*mU; sense {NAG37}*[invAb]*mAmCmCmCmAmUmGmGfAfCfAmUmUmAmAmUmUmCmAmAmA*[invAb])
ANGPTL3 protein [1]; Day 8
  Avg ANGPTL3 (Average ANGPTL3 Protein Normalized to Pre-Treatment and Control): 0.258
ANGPTL3 protein [1]; Day 15
  Avg ANGPTL3 (Average ANGPTL3 Protein Normalized to Pre-Treatment and Control): 0.270
ANGPTL3 protein [1]; Day 22
  Avg ANGPTL3 (Average ANGPTL3 Protein Normalized to Pre-Treatment and Control): 0.387
ANGPTL3 protein [1]; Day 29
  Avg ANGPTL3 (Average ANGPTL3 Protein Normalized to Pre-Treatment and Control): 0.407
ANGPTL3 protein [1]; Day 43
  Avg ANGPTL3 (Average ANGPTL3 Protein Normalized to Pre-Treatment and Control): 0.847
ANGPTL3 gene [2]; Day 8, 1.0 mg/kg single SC injection on day 1, n=3
  Avg HDL, normalized to pre-treatment and control: 0.828
ANGPTL3 gene [2]; Day 15, 1.0 mg/kg single SC injection on day 1, n=3
  Avg HDL, normalized to pre-treatment and control: 0.730
ANGPTL3 gene [2]; Day 22, 1.0 mg/kg single SC injection on day 1, n=3
  Avg HDL, normalized to pre-treatment and control: 0.846
ANGPTL3 gene [2]; Day 29, 1.0 mg/kg single SC injection on day 1, n=3
  Avg HDL, normalized to pre-treatment and control: 0.845
ANGPTL3 gene [2]; Day 43, 1.0 mg/kg single SC injection on day 1, n=3
  Avg HDL, normalized to pre-treatment and control: 1.018
ANGPTL3 protein [3]; Day 8, 0.5 mg/kg single SC injection on day 1, n=3
  Avg ANGPTL3, normalized to pre-treatment and control: 0.534
ANGPTL3 protein [3]; Day 15, 0.5 mg/kg single SC injection on day 1, n=3
  Avg ANGPTL3, normalized to pre-treatment and control: 0.565
ANGPTL3 protein [3]; Day 22, 0.5 mg/kg single SC injection on day 1, n=3
  Avg ANGPTL3, normalized to pre-treatment and control: 0.639
ANGPTL3 protein [3]; Day 29, 0.5 mg/kg single SC injection on day 1, n=3
  Avg ANGPTL3, normalized to pre-treatment and control: 0.758
ANGPTL3 gene [4]; Day 8
  Avg LDL, normalized to pre-treatment and control: 1.044
ANGPTL3 gene [4]; Day 15
  Avg LDL, normalized to pre-treatment and control: 0.841
ANGPTL3 gene [4]; Day 22
  Avg LDL, normalized to pre-treatment and control: 1.142
ANGPTL3 gene [4]; Day 29
  Avg LDL, normalized to pre-treatment and control: 0.966
ANGPTL3 gene [4]; Day 43
  Avg LDL, normalized to pre-treatment and control: 0.921
ANGPTL3 gene [5]; Day 8, 1.0 mg/kg single subcutaneous dose on day 1, female C57bl/6 mice
  Avg Total Chol (Average Total Cholestrol Normalized to Pre-Treatment and Control): 0.783
ANGPTL3 gene [5]; Day 15, 1.0 mg/kg single subcutaneous dose on day 1, female C57bl/6 mice
  Avg Total Chol (Average Total Cholestrol Normalized to Pre-Treatment and Control): 0.842
ANGPTL3 gene [5]; Day 22, 1.0 mg/kg single subcutaneous dose on day 1, female C57bl/6 mice
  Avg Total Chol (Average Total Cholestrol Normalized to Pre-Treatment and Control): 0.916
ANGPTL3 gene [5]; Day 29, 1.0 mg/kg single subcutaneous dose on day 1, female C57bl/6 mice
  Avg Total Chol (Average Total Cholestrol Normalized to Pre-Treatment and Control): 0.953
